{
  "source": "patent EP3822285A1",
  "about": "“VARIANT NISIN PEPTIDES” (University College Cork-National University of Ireland, Cork, priority 2019, dated 2021)",
  "assay_type_in_all_cases": "cell-based",
  "key": {"Thermus scotoductus SE-1": {"system": "Thermus scotoductus SE-1", "test": "Agar diffusion assay with cell free supernatant of producing strains", "settings": "zone diameter relative to Nisin A wild type (100)", "procedure,_shortened": "(§1)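 Cell-free supernatant (50 µl) from overnight nisin A or variant-producing L. lactis cultures placed in wells of Castenholz agar seeded with indicator strain. Plates incubated 55°C for 3 days; zone of clearance measured, reflecting combined peptide yield and specific activity; triplicate.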"}, "[1]": {"system": "Thermus thermophilus HB27", "test": "Agar diffusion assay with cell free supernatant of producing strains", "settings": "zone diameter relative to Nisin A wild type (100)", "procedure,_shortened": "as §1"}, "T. aquaticus": {"system": "T. aquaticus", "test": "Minimum inhibitory concentration assay (Thermus)", "settings": "pure peptide, mean of triplicate assays", "procedure,_shortened": "(§2)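 Purified peptides were tested in triplicate in BSA-pretreated wells containing Castenholz medium, at a final inoculum of ~10^5 cfu/ml. Plates were incubated 3 days at 55 °C, and MIC was taken as the lowest concentration with no visible growth.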"}, "T. brockianus": {"system": "T. brockianus", "test": "Minimum inhibitory concentration assay (Thermus)", "settings": "pure peptide, mean of triplicate assays", "procedure,_shortened": "as §2"}, "T. oshimai": {"system": "T. oshimai", "test": "Minimum inhibitory concentration assay (Thermus)", "settings": "pure peptide, mean of triplicate assays", "procedure,_shortened": "as §2"}, "T. rehai": {"system": "T. rehai", "test": "Minimum inhibitory concentration assay (Thermus)", "settings": "pure peptide, mean of triplicate assays", "procedure,_shortened": "as §2"}, "T. scotoductus SE-1": {"system": "T. scotoductus SE-1", "test": "Minimum inhibitory concentration assay (Thermus)", "settings": "pure peptide, mean of triplicate assays", "procedure,_shortened": "as §2"}, "T. thermophilus HB27": {"system": "T. thermophilus HB27", "test": "Minimum inhibitory concentration assay (Thermus)", "settings": "pure peptide, mean of triplicate assays", "procedure,_shortened": "as §2"}},
  "data": [
    {"smiles": "C=C(NC(=O)[C@@H](NC(=O)[C@H](Cc1c[nH]cn1)NC(=O)[C@@H](NC(=O)[C@H](CO)NC(=O)[C@@H]1CS[C@@H](C)[C@H]2NC(=O)[C@H](C)NC(=O)[C@H](NC(=O)[C@H](CCCCN)NC(=O)[C@H](CCSC)NC(=O)[C@H](CO)NC(=O)[C@@H]3CS[C@@H](C)[C@@H](NC(=O)[C@H](CCCCN)NC(=O)[C@@H]4CS[C@@H](C)[C@@H](NC(=O)[C@@H]5CSC[C@@H](NC(=O)/C(=C/C)NC(=O)[C@@H](N)[C@@H](C)CC)C(=O)N[C@@H]([C@@H](C)CC)C(=O)NC(=C)C(=O)N[C@@H](CC(C)C)C(=O)N5)C(=O)N5CCC[C@H]5C(=O)NCC(=O)N4)C(=O)NCC(=O)N[C@@H](C)C(=O)N[C@@H](CC(C)C)C(=O)N[C@@H](CCSC)C(=O)NCC(=O)N3)[C@H](C)SC[C@H](NC2=O)C(=O)N[C@@H](Cc2c[nH]cn2)C(=O)N1)[C@@H](C)CC)C(C)C)C(=O)N[C@@H](CCCCN)C(=O)O", "note": "[N20S]", "values": [
      {"measurement": "% of wild type", "setting": "Thermus scotoductus SE-1", "result": 112, "unit": "%"},
      {"measurement": "% difference", "setting": "[1]", "result": 119, "unit": "%"},
      {"measurement": "MIC", "setting": "T. aquaticus", "result": 7.8, "unit": "nM"},
      {"measurement": "MIC", "setting": "T. brockianus", "result": 15.6, "unit": "nM"},
      {"measurement": "MIC", "setting": "T. oshimai", "result": 0.975, "unit": "nM"},
      {"measurement": "MIC", "setting": "T. rehai", "result": 1.95, "unit": "nM"},
      {"measurement": "MIC", "setting": "T. scotoductus SE-1", "result": 312.5, "unit": "nM"},
      {"measurement": "MIC", "setting": "T. thermophilus HB27", "result": 3.9, "unit": "nM"}
    ]}
  ]
}
